PMC12140054, “Small glycomimetic antagonists of the cytomegalovirus glycoprotein UL141 prevent binding to TRAIL death receptor” (The Journal of Biological Chemistry, 2025)

How the values were obtained:
[1] = system: human foreskin fibroblasts HFF-BJ (ATCC CRL-2522 cells); test: MTT cytotoxicity / cell viability assay; type: cell-based; details: 0.1 to 50 μM, 72 h
Source text: Cell viability as visualized by fold change of formazan-positive cells normalized to the untreated control and DMSO. Viability reduced below 40% represents the cytotoxic zone, below the dotted line in each plot. The number of biological replicates is indicated.
Human foreskin fibroblasts (HFF), a type of primary fibroblast derived from neonatal foreskin tissue, were chosen for this bioassay due to their distinct advantages in studies involving HCMV. For instance, the HHF cells provide a relevant and effective platform due to their unique susceptibility to HCMV infection, ability to mimic human immune responses, and relevance to clinical scenarios. […] HFF cells were incubated with each compound at concentrations ranging from 0.1 to 50 μM and any possible cytotoxic effect was monitored for 72 h. Tested compounds were dissolved in dimethyl sulfoxide (DMSO). […] The cytotoxic effect (CTE) is represented here as the concentration that causes a reduction of more than 40% in the number of viable cells.
Cells were seeded in a 96-well plate at a density of 1 × 10^4 cells per well for the measurement of cytotoxicity of the compounds (without UVA irradiation). […] Cells after treatment were incubated for […]. Untreated cells were considered negative control, and DMSO-treated cells (at appropriate concentration) were considered vehicle control. The classical MTT assay (3-(4,5-dimethyl thiazolyl-2)-2,5-diphenyltetrazolium bromide) ([68]) was used to measure cellular metabolic activity as an indicator of cell viability, proliferation, and cytotoxicity. Briefly, 0.5 mg/ml MTT solution was dispensed in each well of the 96-well plate and incubated for 4 h. Afterward, the MTT solution was removed and 200 μl of 100% DMSO was added to each well and the plate was placed on a microplate shaker for 5 min to dissolve the formazan granules. The absorbance was measured at 550 nm using a spectrophotometer. DMSO and MTT were purchased from Thermo Fisher Scientific. The darker the solution, the greater the number of viable, metabolically active cells. All experimental compounds were measured using at least 2 to 3 replicates for each and the averaged values from three independent experiments (n = 3) are presented. Cell viability was visualized by fold change of formazan-positive cells normalized to the untreated control and DMSO. Viability reduced below 40% represents the cytotoxic zone. All evaluations were performed using GraphPad Prism 9.5.0 (GraphPad Software, LLC), if other software was not explicitly mentioned.

[2] = target: T1, UL141 D232A mutant (Human cytomegalovirus, UniProt Q6RJQ3, D232A); test: SPR binding to UL141 alanine mutant D232A; details: D232A (site C), 0 to 25 μM
T1 construct: extracellular domain of HCMV UL141 (residues 30–300, Gene ID: 3077418); made in house; host or cells: Sf9 (baculovirus)
Source text: (§1) Collectively, the findings from molecular modeling, ELISA, and SPR prompted a more detailed investigation into the binding mechanisms, leading us to explore the possibility of distinct binding sites for UL141 in its interaction with glycomimetic compound 18. To further clarify this, we conducted mutational analysis on the surface residues of UL141 to identify specific binding sites involved in this interaction. The following residues were selected for alanine-scanning mutagenesis, followed by SPR analysis to assess their contribution to the binding affinity of UL141 for 18: Asp91, Glu92, Arg82, Arg80, and Asp37 (site A); Tyr148 and Arg146 (site B); and Arg85, Leu163, Glu164, Pro231, Trp235, and Asp232 (site C) (Fig. 9A). The UL141 mutants were generated through single alanine substitutions and recombinantly produced in the BV-Sf9 system following the same protocol as the WT UL141. […] The binding affinities of the remaining mutants were assessed using SPR, as illustrated in Figure 9. […] Binding interactions were monitored over a 300-s period. […]
(§2) Figure 9 Mutational analysis of UL141 binding sites for antagonist 18. […] An alternative representation of the same SPR data, showing all measured concentration points, is provided in panel (C), with the structure of compound 18 included for reference. […]

[3] = target: T2, UL141 W235A mutant (Human cytomegalovirus, UniProt Q6RJQ3, W235A); test: SPR binding to UL141 alanine mutant W235A; details: W235A (site C), 0 to 25 μM
T2 construct: extracellular domain of HCMV UL141 (residues 30–300, Gene ID: 3077418); made in house; host or cells: Sf9 (baculovirus)
Source text: as §1, §2

T1 sequence (Q6RJQ3 30-300 D232A): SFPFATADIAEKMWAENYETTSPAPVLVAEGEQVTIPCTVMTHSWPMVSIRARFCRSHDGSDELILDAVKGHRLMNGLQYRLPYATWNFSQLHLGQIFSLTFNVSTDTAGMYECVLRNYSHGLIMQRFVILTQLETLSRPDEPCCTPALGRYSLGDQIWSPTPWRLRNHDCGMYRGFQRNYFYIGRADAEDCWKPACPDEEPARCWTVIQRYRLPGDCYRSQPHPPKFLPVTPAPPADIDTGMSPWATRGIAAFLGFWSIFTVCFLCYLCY
T2 sequence (Q6RJQ3 30-300 W235A): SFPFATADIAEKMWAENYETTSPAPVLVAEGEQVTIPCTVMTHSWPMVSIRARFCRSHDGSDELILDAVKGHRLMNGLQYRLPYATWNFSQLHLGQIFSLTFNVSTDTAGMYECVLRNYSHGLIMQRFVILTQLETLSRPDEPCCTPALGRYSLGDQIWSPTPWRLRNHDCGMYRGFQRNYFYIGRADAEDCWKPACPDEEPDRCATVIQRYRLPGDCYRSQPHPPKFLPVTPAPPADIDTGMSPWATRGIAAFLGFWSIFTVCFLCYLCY

Which results are given for `CCC1C(O)C(O)CN1Cc1ccc(I)cc1` (stereo not drawn) [Compound 18]?
cytotoxicity (in words) [1]: no cytotoxicity was detected; binding to UL141 mutant [2]: prevented binding; binding to UL141 mutant [3]: prevented binding
